Laboratory results from paper PMC3629081, “Tetrahydropyrazolo[1,5-a]Pyrimidine-3-Carboxamide and N-Benzyl-6′,7′-Dihydrospiro[Piperidine-4,4′-Thieno[3,2-c]Pyran] Analogues with Bactericidal Efficacy against Mycobacterium tuberculosis Targeting MmpL3” (PLoS ONE, 2013).
Values joined by “and” are separate entries in the source; they are usually repeats but may differ in a detail not shown here. Equal values may be shown once.

Key:
[1] = system: M. tuberculosis H37Rv mutants with MmpL3 mutations; format: cell-based, Mycobacterium tuberculosis
M. tuberculosis = format: cell-based, Mycobacterium tuberculosis; details: 10x MIC

Structure (SMILES) | Ratio MICmut/MICwt [1] | susceptibility of all isolated mutants to classic antitubercular drugs [1] | frequency of spontaneous resistant mutant generation (M. tuberculosis)
CC(=O)NC[C@H]1CN(c2ccc(N3CCOCC3)c(F)c2)C(=O)O1 [Linezolid] | 0.5 and 1.0 | susceptible | –
CCc1ccc([C@H]2C[C@@H](C(F)(F)F)n3ncc(C(=O)NCc4ccc(OC)cc4)c3N2)cc1 [Compound 1, (5R,7S)-5-(4-ethylphenyl)-N-(4-methoxybenzyl)-7-(trifluoromethyl)-4,5,6,7-tetrahydropyrazolo[1,5-a]pyrimidine-3-carboxamide] | – | – | 6.4×10^−8 mutant/cfus
c1cc2c(s1)CCOC21CCN(Cc2ccc3c(c2)OCCO3)CC1 [Compound 2] | – | – | 3.6×10^−8 mutant/cfus
COc1c(N2C[C@@H]3CCCN[C@@H]3C2)c(F)cc2c(=O)c(C(=O)O)cn(C3CC3)c12 [Moxifloxacin] | 1.0 and 0.5 | susceptible | –
CC[C@@H](CO)NCCN[C@@H](CC)CO [Ethambutol] | 0.5 and 1.0 and 0.8 | susceptible | –
